Reference: patent EP2818472A1, “Imidazo[4,5-c]pyridine and pyrrolo[3,2-c]pyridine compounds as G-protein-coupled receptor kinase 5 (GRK5) modulators” (Max-Planck-Gesellschaft zur Förderung der Wissenschaften …, priority 2013, dated 2014)

System: beta-TC6 cells
Assay: Insulin HTRF assay (relative activity Ar) in beta-TC6 cells
Type: cell-based, mouse
Details: Mus musculus, Beta-TC6, 4 h, insulin HTRF, supernatant of beta-TC6 cells, incubation with test compound at 37°C for 2, 3, 4h; read-out: Ar (relative activity)
Outline: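 beta-TC6 cells (15k/well, seeded 24 or 48 h) washed, then exposed to compound in induction buffer (0.5% DMSO final) for 2, 3 or 4 h at 37°C.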

| Compound | Emax [%] |
| --- | --- |
| COc1cc(Nc2cc3c(cn2)nc(NCC2CCCO2)n3C)cc(OC)c1OC (stereo not shown) [Compound 641, 1-methyl-N2-(tetrahydrofuran-2-ylmethyl)-N6-(3,4,5-trimethoxyphenyl)imidazo[4,5-c]pyridine-2,6-diamine] | 30 to 50 |
| Cn1c(NCC2CCCO2)nc2cnc(Nc3cccc(Cl)c3)cc21 (stereo not shown) [Compound 642, N6-(3-chlorophenyl)-1-methyl-N2-(tetrahydrofuran-2-ylmethyl)imidazo[4,5-c]pyridine-2,6-diamine] | 50 to 100 |
| Cn1c(NCC2CCCO2)nc2cnc(Nc3ccc(F)c(Cl)c3)cc21 (stereo not shown) [Compound 643, N6-(3-chloro-4-fluoro-phenyl)-1-methyl-N2-(tetrahydrofuran-2-ylmethyl)imidazo[4,5-c]pyridine-2,6-diamine] | 30 to 50 |
| COc1ncccc1-c1cc2c(cn1)nc(NCC1CCCO1)n2C (stereo not shown) [Compound 644, 6-(2-methoxy-3-pyridyl)-1-methyl-N-(tetrahydrofuran-2-ylmethyl)imidazo[4,5-c]pyridin-2-amine] | 50 to 100 |
| COCCNc1nc2cnc(Nc3cc(OC)c(OC)c(OC)c3)cc2n1C [Compound 645, N2-(2-methoxyethyl)-1-methyl-N6-(3,4,5-trimethoxyphenyl)imidazo[4,5-c]pyridine-2,6-diamine] | 30 to 50 |
| COCCNc1nc2cnc(Nc3ccc(NC(C)=O)cc3)cc2n1C [Compound 646, N-[4-[[2-(2-methoxyethylamino)-1-methyl-imidazo[4,5-c]pyridin-6-yl]amino]phenyl]acetamide] | 50 to 100 |
| COCCNc1nc2cnc(-c3cccc(N(C)C)c3)cc2n1C [Compound 647, 6-[3-(dimethylamino)phenyl]-N-(2-methoxyethyl)-1-methyl-imidazo[4,5-c]pyridin-2-amine] | 50 to 100 |
| COCCNc1nc2cnc(-c3ccc(S(C)(=O)=O)cc3)cc2n1C [Compound 648, N-(2-methoxyethyl)-1-methyl-6-(4-methylsulfonylphenyl)imidazo[4,5-c]pyridin-2-amine] | 30 to 50 |
| COCCNc1nc2cnc(Nc3ccc(C(=O)OC)cc3)cc2n1C [Compound 649, methyl 4-[[2-(2-methoxyethylamino)-1-methyl-imidazo[4,5-c]pyridin-6-yl]amino]benzoate] | 50 to 100 |
| COCCNc1nc2cnc(-c3cnn(C)c3)cc2n1C [Compound 651, N-(2-methoxyethyl)-1-methyl-6-(1-methylpyrazol-4-yl)imidazo[4,5-c]pyridin-2-amine] | 50 to 100 |
| CNC(=O)c1cccc(-c2cc3c(cn2)nc(NCCOC)n3C)c1 [Compound 652, 3-[2-(2-methoxyethylamino)-1-methyl-imidazo[4,5-c]pyridin-6-yl]-N-methyl-benzamide] | 50 to 100 |
| Cn1c(NCc2ccccc2F)nc2cnc(-c3ccc(N4CCOCC4)cc3)cc21 [Compound 653, N-[(2-fluorophenyl)methyl]-1-methyl-6-(4-morpholinophenyl)imidazo[4,5-c]pyridin-2-amine] | 50 to 100 |
| Cn1c(NCc2ccccc2F)nc2cnc(-c3ccc(CO)cc3)cc21 [Compound 655, [4-[2-[(2-fluorophenyl)methylamino]-1-methyl-imidazo[4,5-c]pyridin-6-yl]phenyl]methanol] | 50 to 100 |
| COc1cc(-c2cc3c(cn2)nc(NCc2ccccc2F)n3C)ccc1O [Compound 656, 4-[2-[(2-fluorophenyl)methylamino]-1-methyl-imidazo[4,5-c]pyridin-6-yl]-2-methoxy-phenol] | 30 to 50 |
| Cn1c(NCc2ccccc2F)nc2cnc(-c3ccc(F)cc3)cc21 [Compound 657, 6-(4-fluorophenyl)-N-[(2-fluorophenyl)methyl]-1-methyl-imidazo[4,5-c]pyridin-2-amine] | 30 to 50 |
| Cn1c(NCc2ccccc2F)nc2cnc(-c3cccs3)cc21 [Compound 658, N-[(2-fluorophenyl)methyl]-1-methyl-6-(2-thienyl)imidazo[4,5-c]pyridin-2-amine] | 50 to 100 |
| CNc1nc2cnc(-c3cccc(N)c3)cc2n1Cc1ccc(OC)c(OC)c1 [Compound 659, 6-(3-aminophenyl)-1-[(3,4-dimethoxyphenyl)methyl]-N-methyl-imidazo[4,5-c]pyridin-2-amine] | 30 to 50 |
| CNc1nc2cnc(Nc3cc(OC)c(OC)c(OC)c3)cc2n1Cc1ccc(OC)c(OC)c1 [Compound 660, 1-[(3,4-dimethoxyphenyl)methyl]-N2-methyl-N6-(3,4,5-trimethoxyphenyl)imidazo[4,5-c]pyridine-2,6-diamine] | 50 to 100 |
| CNc1nc2cnc(Nc3ccc(NC(C)=O)cc3)cc2n1Cc1ccc(OC)c(OC)c1 [Compound 661, N-[4-[[1-[(3,4-dimethoxyphenyl)methyl]-2-(methylamino)imidazo[4,5-c]pyridin-6-yl]amino]phenyl]acetamide] | 50 to 100 |
| CNc1nc2cnc(Nc3cccc(OC)c3)cc2n1Cc1ccc(OC)c(OC)c1 [Compound 662, 1-[(3,4-dimethoxyphenyl)methyl]-N6-(3-methoxyphenyl)-N2-methyl-imidazo[4,5-c]pyridine-2,6-diamine] | 50 to 100 |

| Compound | Emax [%] |
| --- | --- |
| CNc1nc2cnc(Nc3ccc(O)cc3)cc2n1Cc1ccc(OC)c(OC)c1 [Compound 663, 4-[[1-[(3,4-dimethoxyphenyl)methyl]-2-(methylamino)imidazo[4,5-c]pyridin-6-yl]amino]phenol] | 50 to 100 |
| CNc1nc2cnc(Nc3ccc(C(N)=O)cc3)cc2n1Cc1ccc(OC)c(OC)c1 [Compound 664, 4-[[1-[(3,4-dimethoxyphenyl)methyl]-2-(methylamino)imidazo[4,5-c]pyridin-6-yl]amino]benzamide] | 50 to 100 |
| CNc1nc2cnc(Nc3ccc(OC)c(OC)c3)cc2n1Cc1ccc(OC)c(OC)c1 [Compound 665, N6-(3,4-dimethoxyphenyl)-1-[(3,4-dimethoxyphenyl)methyl]-N2-methyl-imidazo[4,5-c]pyridine-2,6-diamine] | 50 to 100 |
| CNc1nc2cnc(Nc3cccc(Cl)c3)cc2n1Cc1ccc(OC)c(OC)c1 [Compound 666, N6-(3-chlorophenyl)-1-[(3,4-dimethoxyphenyl)methyl]-N2-methyl-imidazo[4,5-c]pyridine-2,6-diamine] | 30 to 50 |
| CNc1nc2cnc(Nc3ccccc3)cc2n1Cc1ccc(OC)c(OC)c1 [Compound 667, 1-[(3,4-dimethoxyphenyl)methyl]-N2-methyl-N6-phenyl-imidazo[4,5-c]pyridine-2,6-diamine] | 30 to 50 |
| CNc1nc2cnc(-c3ccc4ccccc4c3)cc2n1Cc1ccc(OC)c(OC)c1 [Compound 668, 1-[(3,4-dimethoxyphenyl)methyl]-N-methyl-6-(2-naphthyl)imidazo[4,5-c]pyridin-2-amine] | 50 to 100 |
| CNc1nc2cnc(-c3ccccc3)cc2n1Cc1ccc(OC)c(OC)c1 [Compound 669, 1-[(3,4-dimethoxyphenyl)methyl]-N-methyl-6-phenyl-imidazo[4,5-c]pyridin-2-amine] | 30 to 50 |
| CNc1nc2cnc(-c3cccc4ccccc34)cc2n1Cc1ccc(OC)c(OC)c1 [Compound 670, 1-[(3,4-dimethoxyphenyl)methyl]-N-methyl-6-(1-naphthyl)imidazo[4,5-c]pyridin-2-amine] | 30 to 50 |
| CNc1nc2cnc(Nc3cccc(C)c3)cc2n1Cc1ccc(OC)c(OC)c1 [Compound 671, 1-[(3,4-dimethoxyphenyl)methyl]-N2-methyl-N6-(m-tolyl)imidazo[4,5-c]pyridine-2,6-diamine] | 30 to 50 |
| CNc1nc2cnc(-c3ccc(OC)cc3)cc2n1Cc1ccc(OC)c(OC)c1 [Compound 672, 1-[(3,4-dimethoxyphenyl)methyl]-6-(4-methoxyphenyl)-N-methyl-imidazo[4,5-c]pyridin-2-amine] | 30 to 50 |
| CNc1nc2cnc(Nc3cccc(C(C)=O)c3)cc2n1Cc1ccc(OC)c(OC)c1 [Compound 673, 1-[3-[[1-[(3,4-dimethoxyphenyl)methyl]-2-(methylamino)imidazo[4,5-c]pyridin-6-yl]amino]phenyl]ethanone] | 50 to 100 |
| CNc1nc2cnc(Nc3cccc(F)c3)cc2n1Cc1ccc(OC)c(OC)c1 [Compound 674, 1-[(3,4-dimethoxyphenyl)methyl]-N6-(3-fluorophenyl)-N2-methyl-imidazo[4,5-c]pyridine-2,6-diamine] | 30 to 50 |
| CNc1nc2cnc(Nc3ccc(SC)cc3)cc2n1Cc1ccc(OC)c(OC)c1 [Compound 675, 1-[(3,4-dimethoxyphenyl)methyl]-N2-methyl-N6-(4-methylsulfanylphenyl)imidazo[4,5-c]pyridine-2,6-diamine] | 50 to 100 |
| CNc1nc2cnc(Nc3cccc(OC(C)C)c3)cc2n1Cc1ccc(OC)c(OC)c1 [Compound 676, 1-[(3,4-dimethoxyphenyl)methyl]-N6-(3-isopropoxyphenyl)-N2-methyl-imidazo[4,5-c]pyridine-2,6-diamine] | 30 to 50 |
| COCCNc1nc2cnc(-c3ccc4ccccc4c3)cc2[nH]1 [Compound 677, N-(2-methoxyethyl)-6-(2-naphthyl)-1H-imidazo[4,5-c]pyridin-2-amine] | 50 to 100 |
| CNc1nc2cnc(-c3ccc(N(C)C)cc3)cc2n1-c1cccc(F)c1 [Compound 678, 6-(4-dimethylaminophenyl)-1-(3-fluorophenyl)-N-methyl-imidazo[4,5-c]pyridin-2-amine] | > 100 |
| CNc1nc2cnc(Nc3cc(OC)c(OC)c(OC)c3)cc2n1-c1cccc(F)c1 [Compound 679, 1-(3-fluorophenyl)-N2-methyl-N6-(3,4,5-trimethoxyphenyl)imidazo[4,5-c]pyridine-2,6-diamine] | 50 to 100 |
| CNc1nc2cnc(Nc3cccc(OC)c3)cc2n1-c1cccc(F)c1 [Compound 680, 1-(3-fluorophenyl)-N6-(3-methoxyphenyl)-N2-methyl-imidazo[4,5-c]pyridine-2,6-diamine] | 50 to 100 |
| CNc1nc2cnc(Nc3ccc(C(N)=O)cc3)cc2n1-c1cccc(F)c1 [Compound 681, 4-[[1-(3-fluorophenyl)-2-(methylamino)imidazo[4,5-c]pyridin-6-yl]amino]benzamide] | 50 to 100 |
| CNc1nc2cnc(Nc3cccc(N(C)C)c3)cc2n1-c1cccc(F)c1 [Compound 682, N6-[3-(dimethylamino)phenyl]-1-(3-fluorophenyl)-N2-methyl-imidazo[4,5-c]pyridine-2,6-diamine] | 50 to 100 |
